Reference: patent publication US11491132B2, “Methods for treating thrombocytopenia” (Enzychem Lifesciences Corporation, priority 2014, dated 2022)

Columns and labels:
Complement 3 = test: Clinical study: activity of PLAG on Complement 3 in healthy subjects; type: in vivo, human
Description: A clinical study is conducted in Gwandong University MyungJi Hospital Clinical Study Center in Republic of Korea with 27 healthy patients to study immune-modulating effect of PLAG. Volunteers are tested for 30 days in vivo as oral administer (500 mg of PLAG per day) under a legitimate clinical approval. Complement 3 is counted using C3 assay kit. The analysis result is shown in FIG. 7, and change of immunoactivity by the administration of PLAG in healthy subjects is shown in Table 8 (effect of PLAG supplementation on immune function of peripheral blood after 4-wk intervention). As shown in FIG. 7 and Table 8, the majority of those who consume PLAG for a month (twenty-six (26) subjects out of 27 patients) show decreased complement 3 (C3), while the control group, who are treated with soybean oil, show both increase and decrease of C3.

HepG2 cells = test: WST-1 cell viability assay in HepG2 cells; type: cell-based; settings: PLAG 1 to 100 μg/ml
Description: The incubated HepG2 cell lines are treated with PLAG (1˜100 μg/ml), followed by IL-4 and TNF-α, reacted for 1 hour, incubated for 18 hours at 37° C. and the supernatant isolated. Quantitation of the amount of C3 in the cellular culture medium (supernatant) from HepG2 cells is performed by ELISA using a commercially available monoclonal antibody (mAb, R&D Systems) and the manufacture's protocol; the results are presented in FIG. 3. C3 is expressed spontaneously under in vitro culture condition using 10% FCS added to HepG2 cells incubated for 12 hr. The cells are treated with different doses of PLAG from 1 to 100 μg/ml (Panel A, Panel B) or 10 and 100 μg/ml of S6I (Panel C), reacted with IL-4 and TNF-α for 1 hr and then incubated for 18 hr at 37° C. Cellular viability is confirmed using the WST-1 assay (Panel A).

[1] = test system: white blood cells and neutrophils; test: PLAG in combination with G-CSF in cyclophosphamide-treated mouse model; type: in vivo, mice; settings: addition of PLAG to G-CSF; levels vs untreated mice
From the text: Mice receive cyclophosphamide (100 mpk, i.p.) for a period of ten days, with or without G-CSF (0.25 mpk, i.p.) or G-CSF (0.25 mpk, i.p.) plus PLAG (25 mpk, p.o.): […]

STAT1 = target: T1, STAT1 (Homo sapiens, UniProt P42224); test: Reporter assay for STAT1 transcriptional activity in HepG2 cells; type: cell-based; parameters: For the STAT1 assay, gene transfected HepG2 (human hepatocyte cell line) is treated with 10 ng of IFN-γ; endogenous in cells; host or cells: HepG2 (gene transfected); settings: gene transfected HepG2, 10 ng IFN-γ, PLAG 0.01-10 μg/ml, 12 hours incubation
T1 sequence (P42224 1-750): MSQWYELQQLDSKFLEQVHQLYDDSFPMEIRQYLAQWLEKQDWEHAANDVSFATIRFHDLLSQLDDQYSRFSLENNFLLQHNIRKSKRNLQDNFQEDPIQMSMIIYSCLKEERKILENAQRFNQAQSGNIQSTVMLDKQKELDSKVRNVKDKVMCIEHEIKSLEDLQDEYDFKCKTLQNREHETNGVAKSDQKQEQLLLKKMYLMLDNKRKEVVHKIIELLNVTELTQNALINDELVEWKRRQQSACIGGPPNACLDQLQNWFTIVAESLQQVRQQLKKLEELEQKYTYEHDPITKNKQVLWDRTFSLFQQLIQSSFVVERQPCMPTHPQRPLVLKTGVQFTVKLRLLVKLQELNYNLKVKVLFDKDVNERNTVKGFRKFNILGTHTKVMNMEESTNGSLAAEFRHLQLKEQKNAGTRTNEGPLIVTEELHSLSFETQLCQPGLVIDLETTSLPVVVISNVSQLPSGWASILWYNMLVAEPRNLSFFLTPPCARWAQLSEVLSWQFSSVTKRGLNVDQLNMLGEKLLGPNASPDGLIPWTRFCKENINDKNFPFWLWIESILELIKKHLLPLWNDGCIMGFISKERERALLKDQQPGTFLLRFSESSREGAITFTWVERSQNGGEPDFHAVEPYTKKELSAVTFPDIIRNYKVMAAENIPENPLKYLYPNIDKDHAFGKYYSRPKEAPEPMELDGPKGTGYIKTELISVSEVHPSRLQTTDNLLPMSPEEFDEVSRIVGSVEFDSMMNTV
Description: By using STAT6 inhibitor (S6I), it is confirmed that the reduction of Complement 3 in HepG2 cells (human hepatocyte cell line) is regulated by STAT6. […] It is also confirmed that PLAG has selective efficacy on STAT6 over STAT1. FIG. 1 presents graphs showing STAT1 and STAT6 transcriptional activity in the PLAG treated HepG2 cells. NC refers to the unstimulated control cell. For the STAT1 assay, gene transfected HepG2 (human hepatocyte cell line) is treated with 10 ng of IFN-γ and serially diluted PLAG is added (0.01 μg/ml, 0.1 μg/ml, 1 μg/ml, and 10 μg/ml as shown) to see its effect on gene expression in the stimulated cell. For the STAT6 assay, gene transfected HepG2 cells are treated with 10 ng of IL-4 and again serially diluted PLAG is added (0.01 μg/ml, 0.1 μg/ml, 1 μg/ml, and 10 μg/ml as shown) to see its effect on gene expression in the stimulated cell. The assay is carried out following 12 hours incubation of treated cells.

platelets = test: Phenylhydrazine-induced platelet reduction in mice; type: in vivo; settings: PHZ 100 mg/kg i.p., PLAG 5 mg/kg orally
Description: To evaluate the effect of PLAG on the concentration of platelets mice are treated with compounds which would be expected to cause reductions in platelet numbers, specifically phenylhydrazine, tamoxifen or lipopolysaccharide.
Mice are injected with 100 mg/kg phenylhydrazine (PHZ), i.p., to induce anemia and reduction of platelets. 5 mg/kg PLAG is administered to the mice orally and blood samples are taken at 3 and 13 days after. In addition, for comparison, normal mice which are not treated with phenylhydrazine are prepared as a normal group, and mice treated with PHZ and olive oil instead of PLAG are prepared as a control group. The blood samples taken from the mice are treated with 0.5 ml EDTA (Minicollect tube, Greiner bio-one, Austria) and concentration of platelet is measured using automated blood sample analyzer BC-6800 (Mindray, Shenzhen, China) by number of platelet per […] (k: 1,000).

CCCCC/C=C\C/C=C\CCCCCCCC(=O)OC(COC(C)=O)COC(=O)CCCCCCCCCCCCCCC (racemic) [PLAG, 1-palmitoyl-2-linoleoyl-3-acetylglycerol]
decrease of average concentration of C3 in blood (Complement 3; after administration of PLAG, p value <0.001): about 10 mg/dL | subjects showing decreased complement 3 (C3) (Complement 3; out of 27 patients, PLAG for a month): 26 subjects | cellular viability (WST-1) (HepG2 cells): does not affect the cellular propagation and death | protection from cyclophosphamide-induced neutropenia [1]: substantially complete protection | STAT1 expression (transcriptional activity, reporter) (STAT1): no effect | Platelet (day 3) Conc (platelets): 1072 ± 125.4 k/ul
